21 molecules from US11957687B2 (REGENERON PHARMACEUTICALS, INC., priority 2019, dated 2024) can be followed below.

Format in all cases: biochemical
The target in one assay is HSD17B13 (Homo sapiens (Human), UniProt Q7Z5P4). Put plainly: HSD17B13 enzymatic inhibition assay (150 nM or 50 nM HSD17B13). The conditions noted are these: 50 nM HSD17B13; read-out: Inhibition of 50 nM of HSD17B13 IC50.
For the next assay, the target named is HSD17B2 (Homo sapiens (Human), UniProt P37059). Nature of the assay: HSD17B2 enzymatic blocking assay. Particulars: 1.8 μM Estradiol, 650 μM NAD; read-out: Inhibition of HSD17B2 IC50. How it is done:
To screen compounds of the disclosure for their ability to block HSD17B2 function, an enzymatic blocking assay was performed. For the assay, HSD17B2 activity was measured by detecting NADH formation from oxidation of Estradiol using a NADH Glo luminescence assay (Promega, #Cat. No. G9062). Compounds of the disclosure were evaluated in a dose titration assay where the compounds were titrated at 10-point dose curve using an Echo-555 liquid handling dispenser. HSD17B2 (SEQ ID NO: 3, expressed in mammalian cells) was added at a final concentration of 2 ng/μL in a buffer containing 50 mM Tris-HCl, pH 7.5, Pluronic F-127 0.05%, Tween20 0.01%, BSA 0.01% into a low volume white 384-well assay plate. Compounds were incubated with the enzyme for 15 min at 20° C. The assay reaction was then initiated by addition of 1.8 μM Estradiol substrate (Sigma, catalog #E2758-250MG, CAS: 50-28-2) and 650 μM NAD co-factor, and the reaction mixture was incubated for 45 min at 20° C. DMSO at a concentration of 0.5% was used as a negative control and a ‘no substrate’ control was used a positive control in the assay. Detection reagent was then added as per manufacturer's instructions, and the plate was subsequently incubated in the dark for 1 hour at room temperature, NADH generated was detected in the luminescence mode on the Envision Perkin Elmer plate reader. The IC50 values were determined using Dotmatics analysis software.

The next assay has as its target HSD17B1 (Homo sapiens (Human), UniProt P14061). Nature of the assay: HSD17B1 enzymatic blocking assay. The conditions noted are these: 25 μM Estradiol, 500 μM NAD; read-out: Inhibition of HSD17B1 IC50. How it is done:
To screen compounds of the disclosure for their ability to block HSD17B1 function, an enzymatic blocking assay was performed. For the assay, HSD17B1 activity was measured by detecting NADH formation from oxidation of Estradiol using a NADH Glo luminescence assay (Promega, #Cat. No. G9062). […] Compounds were incubated with the enzyme for 30 minutes at room temperature. […] DMSO at a concentration of 0.5% was used as a negative control and a ‘no substrate’ control was used a positive control in the assay. Detection reagent was then added as per manufacturer's instructions, and the plate was subsequently incubated in the dark for 1 hour at room temperature, NADH generated was detected in the luminescence mode on the Envision Perkin Elmer plate reader. The IC50 values were determined using Dotmatics analysis software.

Each structure is given as a SMILES string.

Sequence of HSD17B1 (P14061 other isoform, or with tags, fused parts or gaps): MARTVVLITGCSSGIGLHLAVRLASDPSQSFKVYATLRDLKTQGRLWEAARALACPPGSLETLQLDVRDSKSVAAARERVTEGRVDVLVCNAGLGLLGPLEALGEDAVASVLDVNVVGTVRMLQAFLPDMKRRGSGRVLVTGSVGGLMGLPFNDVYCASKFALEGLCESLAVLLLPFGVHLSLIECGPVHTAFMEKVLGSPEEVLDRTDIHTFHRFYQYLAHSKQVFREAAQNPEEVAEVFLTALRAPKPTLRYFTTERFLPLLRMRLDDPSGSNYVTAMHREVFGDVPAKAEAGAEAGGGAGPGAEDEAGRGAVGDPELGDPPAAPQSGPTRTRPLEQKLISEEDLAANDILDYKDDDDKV
Sequence of HSD17B2 (P37059 other isoform, or with tags, fused parts or gaps): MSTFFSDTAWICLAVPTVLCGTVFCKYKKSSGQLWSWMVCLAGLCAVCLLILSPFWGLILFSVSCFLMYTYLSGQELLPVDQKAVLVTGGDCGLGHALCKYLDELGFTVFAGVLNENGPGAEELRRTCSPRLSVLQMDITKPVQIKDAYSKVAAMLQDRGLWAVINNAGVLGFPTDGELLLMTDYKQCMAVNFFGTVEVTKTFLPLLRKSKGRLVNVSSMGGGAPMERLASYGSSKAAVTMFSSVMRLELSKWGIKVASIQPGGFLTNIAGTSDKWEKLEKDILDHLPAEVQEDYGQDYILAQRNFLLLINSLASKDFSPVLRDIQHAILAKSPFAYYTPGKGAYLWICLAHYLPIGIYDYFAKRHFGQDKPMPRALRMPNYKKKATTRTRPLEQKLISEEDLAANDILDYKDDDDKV
Sequence of HSD17B13 (Q7Z5P4 other isoform, or with tags, fused parts or gaps): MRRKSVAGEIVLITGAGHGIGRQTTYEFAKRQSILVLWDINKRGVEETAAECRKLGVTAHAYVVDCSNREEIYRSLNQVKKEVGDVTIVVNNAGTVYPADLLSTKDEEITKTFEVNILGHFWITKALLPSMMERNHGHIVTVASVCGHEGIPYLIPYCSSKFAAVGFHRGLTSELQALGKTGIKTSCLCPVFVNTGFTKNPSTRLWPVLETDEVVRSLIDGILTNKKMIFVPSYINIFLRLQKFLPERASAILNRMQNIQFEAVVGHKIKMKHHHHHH

What is called IC50 is the point on the concentration scale where inhibition reaches its midpoint. Take `Cc1ccc2c(c1)OC(C)CC2NC(=O)c1ccc(C(F)(F)F)[nH]c1=O` (stereo not drawn) [Compound 405, N-(2,7-dimethylchroman-4-yl)-2-oxo-6-(trifluoromethyl)-1,2-dihydropyridine-3-carboxamide]: the IC50 is 160 nM at HSD17B13, > 100 µM at HSD17B2 and > 30 µM on HSD17B1.

Turning to `CCCC1CC(NC(=O)c2ccc(C(F)(F)F)[nH]c2=O)c2ccc(C)cc2O1` (stereo not drawn) [Compound 406, N-(7-methyl-2-propylchroman-4-yl)-2-oxo-6-(trifluoromethyl)-1,2-dihydropyridine-3-carboxamide], the IC50 on HSD17B13 was 230 nM; on HSD17B2, 54 µM; at HSD17B1 it was 28.8 µM.

For `CCC1CC(NC(=O)c2ccc(C(F)(F)F)[nH]c2=O)c2ccc(C)cc2O1` (stereo not drawn) [Compound 407, N-(2-ethyl-7-methylchroman-4-yl)-2-oxo-6-(trifluoromethyl)-1,2-dihydropyridine-3-carboxamide], the IC50 at HSD17B13 was determined as 160 nM; at HSD17B2, 69.2 µM; on HSD17B1, 12.5 µM.

Consider `Cc1ccc2c(c1)OC1CCCCC1C2NC(=O)c1ccc(C(F)(F)F)[nH]c1=O` (stereo not drawn) [Compound 409, N-(6-methyl-2,3,4,4a,9,9a-hexahydro-1H-xanthen-9-yl)-2-oxo-6-(trifluoromethyl)-1,2-dihydropyridine-3-carboxamide], for which the half-maximal inhibitory concentration (IC50) on HSD17B13 is 40 nM; on HSD17B2, 29.7 µM; on HSD17B1, > 30 µM.

Regarding `O=C(NC1c2ccccc2-c2ccc(C(F)(F)F)cc21)c1ccc(C(F)(F)F)[nH]c1=O` (stereo not drawn) [Compound 414, 2-oxo-6-(trifluoromethyl)-N-(2-(trifluoromethyl)-9H-fluoren-9-yl)-1,2-dihydropyridine-3-carboxamide], the concentration for half-maximal inhibition (IC50) on HSD17B13 is 250 nM; on HSD17B2, 17.5 µM; at HSD17B1, 8.59 µM.

For `COc1ccc2c(c1)C(NC(=O)c1ccc(C(F)(F)F)[nH]c1=O)c1ccccc1-2` (stereo not drawn) [Compound 416, N-(2-methoxy-9H-fluoren-9-yl)-2-oxo-6-(trifluoromethyl)-1,2-dihydropyridine-3-carboxamide], the IC50 at HSD17B13 was found to be 70 nM; at HSD17B2, 14.8 µM; on HSD17B1, 20 µM.

With `Cc1ccc2c(c1)C(NC(=O)c1ccc(C(F)(F)F)[nH]c1=O)c1ccccc1-2` (stereo not drawn) [Compound 417, N-(2-methyl-9H-fluoren-9-yl)-2-oxo-6-(trifluoromethyl)-1,2-dihydropyridine-3-carboxamide], the IC50 on HSD17B13 turned out to be 100 nM; on HSD17B2 it was 47.9 µM; at HSD17B1, 13.5 µM.

Regarding `CNc1cccc(C(NC(=O)c2ccc(C(F)(F)F)[nH]c2=O)c2ccc(C)cc2)c1` (stereo not drawn) [Compound 419, N-((3-(methylamino)phenyl)(p-tolyl)methyl)-2-oxo-6-(trifluoromethyl)-1,2-dihydropyridine-3-carboxamide], the IC50 on HSD17B13 was 630 nM; at HSD17B2, > 100 µM; at HSD17B1 it was > 30 µM.

Turning to `Cc1ccc(C(NC(=O)c2ccc(C(F)(F)F)[nH]c2=O)C2CCCCC2)cc1` (stereo not drawn) [Compound 421, N-(cyclohexyl(p-tolyl)methyl)-2-oxo-6-(trifluoromethyl)-1,2-dihydropyridine-3-carboxamide], the half-maximal inhibitory concentration (IC50) is 360 nM on HSD17B13, 11.3 µM on HSD17B2 and 25.1 µM on HSD17B1.

Take `Cc1ccc(C(CC2CCCCC2)NC(=O)c2ccc(C(F)(F)F)[nH]c2=O)cc1` (stereo not drawn) [Compound 422, N-(2-cyclohexyl-1-(p-tolyl)ethyl)-2-oxo-6-(trifluoromethyl)-1,2-dihydropyridine-3-carboxamide]: the half-inhibitory concentration (IC50) on HSD17B13 was found to be 160 nM; on HSD17B2, 17.3 µM; at HSD17B1, 10.7 µM.

`Cc1ccc2c(c1)Oc1cc(C)ccc1C2NC(=O)c1cc(N2CCN(C)CC2)c(C(F)(F)F)[nH]c1=O` [Compound 435, N-(3,6-dimethyl-9H-xanthen-9-yl)-5-(4-methylpiperazin-1-yl)-2-oxo-6-(trifluoromethyl)-1,2-dihydropyridine-3-carboxamide]: the IC50 at HSD17B13 worked out at 110 nM; at HSD17B2 it was 59.4 µM; at HSD17B1, 23.5 µM.

Turning to `Cc1ccc2c(c1)Oc1cc(C)ccc1C2NC(=O)c1cc(N2CCCCC2)c(C(F)(F)F)[nH]c1=O` [Compound 436, N-(3,6-dimethyl-9H-xanthen-9-yl)-2-oxo-5-(piperidin-1-yl)-6-(trifluoromethyl)-1,2-dihydropyridine-3-carboxamide], the IC50 was 90 nM at HSD17B13, 27.3 µM at HSD17B2 and 6.19 µM on HSD17B1.

Consider `Cc1ccc2c(c1)Oc1cc(C)ccc1C2NC(=O)c1cc(N2CCOCC2)c(C(F)(F)F)[nH]c1=O` [Compound 438, N-(3,6-dimethyl-9H-xanthen-9-yl)-5-morpholino-2-oxo-6-(trifluoromethyl)-1,2-dihydropyridine-3-carboxamide], for which the IC50 at HSD17B13 was found to be 50 nM; at HSD17B2 it was 23.5 µM; at HSD17B1, 10.7 µM.

Consider `CSc1cccc(C(NC(=O)c2ccc(C(F)(F)F)[nH]c2=O)c2ccc(C)cc2)c1` (stereo not drawn) [Compound 445, N-((3-(methylthio)phenyl)(p-tolyl)methyl)-2-oxo-6-(trifluoromethyl)-1,2-dihydropyridine-3-carboxamide], for which the IC50 worked out at 230 nM on HSD17B13, 42.9 µM on HSD17B2 and 14.8 µM on HSD17B1.

As to `Cc1ccc2c(c1)Oc1cc(C)ccc1C2NC(=O)c1cc(C2CCCCC2)c(C(F)(F)F)[nH]c1=O` [Compound 460, 5-cyclohexyl-N-(3,6-dimethyl-9H-xanthen-9-yl)-2-oxo-6-(trifluoromethyl)-1,2-dihydropyridine-3-carboxamide], the IC50 at HSD17B13 was determined as 30 nM; at HSD17B2 it was 25 µM; at HSD17B1, 12.9 µM.

On to `Cc1ccc2c(c1)Oc1cc(C)ccc1C2NC(=O)c1cc(C2CCOCC2)c(C(F)(F)F)[nH]c1=O` [Compound 461, N-(3,6-dimethyl-9H-xanthen-9-yl)-2-oxo-5-(tetrahydro-2H-pyran-4-yl)-6-(trifluoromethyl)-1,2-dihydropyridine-3-carboxamide], for which the IC50 on HSD17B13 was 40 nM; at HSD17B2, 45.4 µM; at HSD17B1, 7.64 µM.

Turning to `Cc1ccc2c(c1)Sc1cc(C)ccc1C2NC(=O)c1cc(-c2ccncc2)c(C(F)(F)F)[nH]c1=O` [Compound 495, N-(3,6-dimethyl-9H-thioxanthen-9-yl)-6-oxo-2-(trifluoromethyl)-1,6-dihydro-[3,4′-bipyridine]-5-carboxamide], the IC50 at HSD17B13 is 30 nM; on HSD17B2, 19.7 µM; at HSD17B1 it was 2.04 µM.

As for `Cc1ccc2c(c1)Oc1cc(C)ccc1C2NC(=O)c1cc(-c2cncnc2)c(C(F)(F)F)[nH]c1=O` [Compound 499, N-(3,6-dimethyl-9H-xanthen-9-yl)-2-oxo-5-(pyrimidin-5-yl)-6-(trifluoromethyl)-1,2-dihydropyridine-3-carboxamide], the figures for the IC50 on HSD17B13, on HSD17B2 and at HSD17B1 were 30 nM, 9.8 µM and 4.86 µM, respectively.

On to `Cc1ccc2c(c1)Oc1cc(C)ccc1C2NC(=O)c1cc(Cc2ccccc2)c(C(F)(F)F)[nH]c1=O` [Compound 500, 5-benzyl-N-(3,6-dimethyl-9H-xanthen-9-yl)-2-oxo-6-(trifluoromethyl)-1,2-dihydropyridine-3-carboxamide], for which the IC50 amounted to 20 nM on HSD17B13, 14.8 µM at HSD17B2 and 2.67 µM at HSD17B1.

Take `Cc1ccc2c(c1)Oc1cc(C)ccc1C2NC(=O)c1cc(C2=CCN(C)CC2)c(C(F)(F)F)[nH]c1=O` [Compound 501, N-(3,6-dimethyl-9H-xanthen-9-yl)-1′-methyl-6-oxo-2-(trifluoromethyl)-1,1′,2′,3′,6,6′-hexahydro-[3,4′-bipyridine]-5-carboxamide]: the concentration for half-maximal inhibition (IC50) at HSD17B13 was 340 nM; on HSD17B2, 46 µM; on HSD17B1 it was > 30 µM.

In the case of `Cc1ccc2c(c1)Oc1cc(C)ccc1C2NC(=O)c1cc(-c2ccncc2)c(C(F)(F)F)[nH]c1=O` [Compound 504, N-(3,6-dimethyl-9H-xanthen-9-yl)-6-oxo-2-(trifluoromethyl)-1,6-dihydro-[3,4′-bipyridine]-5-carboxamide], the values for the IC50 on HSD17B13, at HSD17B2 and on HSD17B1 were 60 nM, 39.4 µM and 19.7 µM, respectively.
